Measured values from patent US7385103B2, “Animal model, cells, and treatment for malignant melanoma” (Rutgers, the State University, priority 2004, dated 2008).

Experiments:
[1] = tested on: Grm1-mediated ERK1/2 activation; experiment: ERK1/2 phosphorylation in melanoma cells, western blot with phospho-ERK1/2 antibodies; assay type: cell-based, mouse; details: for phosphorylation of ERK1/2: 10^−5 M
Experimental: To examine whether ERK1/2 were activated after Grm1 activation, cells were treated for the indicated times with the agonist Quisqualate. After treatment, melanoma cells were lysed and the activation of ERK1/2 was determined using antibodies against the phosphorylated forms of ERK1/2.
Melanoma cells lines were transiently transfected with dominant-negative mutants of Grm1 and expression of the Grm1 mutants was analyzed by western blot analysis.
Upon IP3 accumulation in cells, calcium is released from the endoplasmic reticulum to the cytoplasm, allowing these ions to act as second messengers that bind to calmodulin and further activate calcium-calmodulin-dependent kinases that are capable of activating mitogen-activated protein kinases (MAPKS) (Soderling (1999) Trends Biochem. Sci. 24(6):232-6). Accordingly, it was determined whether IP3 accumulation in the tumor cell lines disclosed herein, upon Grm1 agonist treatment, would yield intracellular calcium signaling that could affect ERK activation. Depletion of intracellular calcium in these cells was obtained by chelating extracellular calcium with EGTA, which obligates calcium to exit the cell in order to maintain calcium homeostasis.
PIP2 hydrolysis resulting from Grm1 activation leads to the production of IP3 and DAG. DAG can then activate protein kinase C (PKC). […] Thus, it was determined whether the activation of ERK1/2 by Grm1 is also mediated by PKC in the tumor cell lines disclosed herein.
To have a minimum amount of the natural ligand (glutamate) present in the growth medium, customized glutamine- and glutamate-free RPMI (RPMI-glu) was used (INVITROGEN™, Carlsbad, Calif.). GLUTAMAX™ (INVITROGEN™), a substitute for glutamate and glutamine, was added to the growth medium at a final concentration of 2 mM, and 10% dialyzed fetal calf serum (INVITROGEN™) was used to supplement the medium. For induction with Grm1 agonist, quisqualate, the cells were grown in RPMI-glu for 3-4 days, plated at 3×10^5 cells per 60-mm plate and serum starved overnight. Several concentrations of quisqualate (10^−4 M to 10^−6 M) and several time points (30 seconds to 120 minutes) were tested for optimal induction. For Grm1 antagonist effects, cells were pretreated for 30 minutes with 10^−5 M of LY367385 before agonist treatment. For PKC inhibitor (RO-31-8220) and calcium chelators (EGTA, BAPTA-AM), cells were pretreated for indicated times before agonist challenge.
Proteins were extracted using lysis buffer (50 mM Tris-HCl, 150 mM NaCl, 1 mM EDTA, 1% NP-40, 5% glycerol, and 1 mM dithiothreitol, pH 7.4) and protease inhibitors (Complete protease inhibitor cocktail tablets, Roche Molecular Biochemicals, Indianapolis, Ind.). Protein concentrations were measured using the BIO-RAD® DC Protein Assay kit (Bio-Rad, Hercules, Calif.). Equal amounts of lysates were loaded in each lane in 7.5 or 10% polyacrylamide gels (BIO-RAD®, Hercules, Calif.). Proteins were transferred to nitrocellulose membranes (Osmonics, Minnetonka, Minn.). Ponceau Red staining of membranes, after transfer, was performed to verify equivalent amounts of protein between samples. Anti-PERK, ERK, PhosphoPKC isoforms, PKC isoforms antibodies were obtained from Cell Signaling Technology, Inc. (Beverly, Mass.).

melanoma cell lines = experiment: establishment of melanoma cell lines from amelanotic ear tumors in culture; assay type: cell-based, mouse
Experimental: To further analyze the signaling events mediated by Grm1 in transformed melanocytes, cell lines derived from ear tumor bearing albino mice (Cohen-Salal, et al. (2001) supra) were generated. Tumors from these mice were sectioned in two halves. Protein extraction was performed on one part of the tumors and western immunoblots were done to verify the ectopic expression of Grm1. The other half of the tumor was used to generate homogeneous in vitro melanoma cell lines by gentle selection of melanocyte cells over keratinocytes and fibroblasts through differential geneticin resistance. Initial efforts to directly establish cell lines on standard culture medium supplemented with geneticin were unsuccessful. […] Based on morphology and growth rate, 10^−5 M quisqualate was sufficient to establish growth in culture. […] Ten cells lines namely LL1A, LL1T, Nu1, Nu2, MMB3A, MMB3T, 4045A, 4045T, 4046T, 4046A, were successfully generated from at least six independent mice tumors. Given that these mouse melanoma cell lines behave very similarly in culture, data presented herein is of representative cell lines. […] Cytoplasmic staining for Grm1 has also been reported in other cellular systems (Tadokoro, et al. (1999) Proc. Natl. Acad. Sci. USA 96:13801-13806). To verify the melanocytic origin of these cells, co-staining of the cells was performed with Tyrp-1. […]

Molecule: N[C@@H](Cn1oc(=O)[nH]c1=O)C(=O)O [quisqualate, L-quisqualate]
- phosphorylation of ERK1/2 ([1]; after 5 minutes of tumor cell stimulation): increase in the phosphorylation of ERK1/2
- phosphorylation of ERK1/2 ([1]; after 15 minutes of stimulation): reduced to background levels
- quisqualate concentration sufficient to establish growth in culture (melanoma cell lines; based on morphology and growth rate): 10^−5 M
- establishment of melanoma cell lines on addition to culture medium (melanoma cell lines; culture medium supplemented with geneticin): enabled the establishment of melanoma cell lines

Molecule: CC(=O)OCOC(=O)CN(CC(=O)OCOC(C)=O)c1ccccc1OCCOc1ccccc1N(CC(=O)OCOC(C)=O)CC(=O)OCOC(C)=O [BAPTA-AM]
- ERK activation by quisqualate ([1]; preincubation 30 minutes prior to agonist challenge, in calcium-free media): completely abolished
- ERK activation by quisqualate ([1]; preincubation 30 minutes prior to agonist challenge, in the presence of extracellular calcium): dose-dependent decrease in ERK activation

Molecule: Cc1cc(C(=O)O)ccc1[C@H](N)C(=O)O [LY367385]
- activation of ERK1/2 by quisqualate ([1]; melanoma lines pretreated 30 minutes with antagonist (10^−5 M) before agonist challenge): abrogated

Molecule: O=C(O)CN(CCOCCOCCN(CC(=O)O)CC(=O)O)CC(=O)O [EGTA]
- ERK activation by quisqualate ([1]; chelating extracellular calcium to deplete intracellular calcium): time-dependent decrease in ERK activation

B1: siRNA: siRNA specific for Grm1 nucleic acid, templates SEQ ID NO:3 (top strand) and SEQ ID NO:4 (bottom strand) (nucleic acid)
sense: GATCCCGTGGACGGAGATGTCATCATTTCAAGAGAATGATGACATCTCCGTCCATTTTTTGGAAA
antisense: GCTTTTCCAAAAAATGGACGGAGATGTCATCATTCTCTTGAAATGATGACATCTCCGTCCACGG
modifications: expressed or natural sequence; the letters are possibly those of the target site
- ERK activation by Grm1 agonist ([1]; transfected melanoma cells, compared to cells transfected with an unrelated siRNA sequence): inhibited ERK activation
